Measured values taken from patent US4727061A, “Pharmaceutical preparations having diuretic activity” (Rohm GmbH, priority 1984, dated 1988).

System: female Sprague-Dawley rats
Experiment: Natriuretic activity in anesthetized, catheterized rats under i.v. saline/fructose infusion (method of Kramer et al.)
Format: in vivo
Conditions: 250 micrograms of peptide per rat
Description: In the test protocol employed, female Sprague-Dawley rats weighing from 206 to 250 g were used as test animals. Before the test, the rats were exposed to a normal diet and had free access to food and water. On the day of the test, the rats were anesthetized with methohexital and catheters were inserted in the aorta and the jugular vein and from there through the abdomen in the bladder.
The animals were then placed into individual cages mounted on a scale. A 0.45% saline solution with 2.5% fructose was then administered to them intravenously at a rate ranging from 33 to 62 microliters per minute so that the body weight remained constant. Two hours after the animals had recovered, 15 minute urine collection periods were initiated and continued throughout the test. The diuretic material to be tested was dissolved (at pH 7.4) in the infusion solution, which contained tris HCl as a buffer. In the case of the fractions characterized by natriuresis, 15 minute urine samples were collected until the sodium excretion had again reached the base line, and the rate of infusion was adjusted so that the body weight remained constant. The arterial blood pressure was monitored throughout the test by means of a pressure measuring apparatus (Statham P-23-Db). The sodium and potassium concentrations in serum and urine were monitored by flame photometry.
250 micrograms of the peptide substance to be tested were administered to each rat.
(2) Sodium excretion in treated rats in micromoles per minute per milligram of administered substance of formula I.
(3) Time of maximum activity (tmax) in minutes.
(4) Increase in natriuresis as quotient F=(Na^+ excretion after treatment)/(Na^+ excretion before treatment).

Question: Which results are given for Gly-Gly?
Answer: (3) Time of maximum activity (tmax): 1.5 to 2.5 h; (4) Increase in natriuresis as quotient F = (Na+ excretion after treatment)/(Na+ excretion before treatment): 39.8; (2) Na+ excretion in treated rats (treated rats, in the i.v. infusion solution, pH 7.4, 15 minute urine collections): 14.7 micromoles per minute per mill; (2) Q = K+/Na+ in treated rats (treated rats, urinary K+/Na+ quotient): 0.63
